Source: US11046680B1, “Heteroaryl-substituted triazoles as APJ receptor agonists” (priority 2016, dated 2021)

molecular target: human APJ receptor (Homo sapiens (Human), UniProt P35414); test: biochemical; assay type: biochemical; details: [35S]GTPγS binding, CHO membranes expressing human APJ receptor; read-out: Activity hAPJ SPA EC50 IP
Experimental: The human APJ receptor was cloned by polymerase chain reaction and the gene encoding the receptor was subcloned in pFLAG-CMV™-3 expression vector (Sigma, Saint Louis, Mo. USA) in-house at Amgen. A GTPγS binding assay was performed on membranes prepared from CHO cells stably expressing human APJ receptor. The optimum experimental conditions for the concentrations of GDP, MgCl2, and NaCl in the assay buffer were initially determined. […] Incubation was at RT for 90 min and the microplate was read using a ViewLux™ ultra HTS Microplate Imager (PerkinElmer, Inc.).

Sequence of human APJ receptor (P35414 whole entry): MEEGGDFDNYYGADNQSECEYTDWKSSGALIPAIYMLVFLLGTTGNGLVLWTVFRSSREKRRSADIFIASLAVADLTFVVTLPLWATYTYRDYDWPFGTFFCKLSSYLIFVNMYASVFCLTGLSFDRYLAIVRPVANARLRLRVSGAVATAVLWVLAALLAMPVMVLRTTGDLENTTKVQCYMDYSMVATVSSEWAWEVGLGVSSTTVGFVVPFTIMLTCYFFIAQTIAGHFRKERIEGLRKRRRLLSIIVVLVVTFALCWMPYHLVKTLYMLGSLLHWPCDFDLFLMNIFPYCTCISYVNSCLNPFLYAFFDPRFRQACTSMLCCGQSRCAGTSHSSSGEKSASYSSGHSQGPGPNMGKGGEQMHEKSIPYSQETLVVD

Structure (SMILES) | EC50
COc1cccc(OC)c1-n1c(NS(=O)(=O)CC[C@@H](O)C2CCCC2)nnc1-c1nc(C)cs1 (mixture of isomers) [Example 98.0, (R)-3-Cyclopentyl-N-(4-(2,6-dimethoxyphenyl)-5-(4-methylthiazol-2-yl)-4H-1,2,4-triazol-3-yl)-3-hydroxypropane-1-sulfonamide and (S)-3-cyclopentyl-N-(4-(2,6-dimethoxyphenyl)-5-(4-methylthiazol-2-yl)-4H-1,2,4-triazol-3-yl)-3-hydroxypropane-1-sulfonamide] | 5.3 nM
COc1cccc(OC)c1-n1c(NS(=O)(=O)[C@H]2CCCNC2)nnc1-c1ccn(C)n1 (mixture of isomers) [Example 263.0, (3R)-N-(4-(2,6-dimethoxyphenyl)-5-(1-methyl-1H-pyrazol-3-yl)-4H-1,2,4-triazol-3-yl)-3-piperidinesulfonamide and (3S)-N-(4-(2,6-dimethoxyphenyl)-5-(1-methyl-1H-pyrazol-3-yl)-4H-1,2,4-triazol-3-yl)-3-piperidinesulfonamide] | 180 nM
COc1cccc(OC)c1-n1c(NS(=O)(=O)[C@@H](C)[C@H](OC)c2ccc(C#N)cc2C#N)nnc1-c1ccn(C)n1 (mixture of isomers) [Example 264.0, (1S,2R)-1-(2,4-dicyanophenyl)-N-(4-(2,6-dimethoxyphenyl)-5-(1-methyl-1H-pyrazol-3-yl)-4H-1,2,4-triazol-3-yl)-1-methoxy-2-propanesulfonamide and (1R,2S)-1-(2,4-dicyanophenyl)-N-(4-(2,6-dimethoxyphenyl)-5-(1-methyl-1H-pyrazol-3-yl)-4H-1,2,4-triazol-3-yl)-1-methoxy-2-propanesulfonamide] | 0.8 nM
COc1cccc(OC)c1-n1c(NS(=O)(=O)C[C@H](OC)c2ccc(Cl)cc2S(C)(=O)=O)nnc1-c1ccn(C)n1 (mixture of isomers) [Example 305.0, (2R)-2-(4-Chloro-2-(methylsulfonyl)phenyl)-N-(4-(2,6-dimethoxyphenyl)-5-(1-methyl-1H-pyrazol-3-yl)-4H-1,2,4-triazol-3-yl)-2-methoxyethanesulfonamide and (2S)-2-(4-chloro-2-(methylsulfonyl)phenyl)-N-(4-(2,6-dimethoxyphenyl)-5-(1-methyl-1H-pyrazol-3-yl)-4H-1,2,4-triazol-3-yl)-2-methoxyethanesulfonamide] | 0.44 nM
COc1cccc(OC)c1-n1c(NS(=O)(=O)CC[C@@H](O)C2CCCC2)nnc1-c1cccs1 (mixture of isomers) [Example 362.0, (R)-3-Cyclopentyl-N-(4-(2,6-dimethoxyphenyl)-5-(thiophen-2-yl)-4H-1,2,4-triazol-3-yl)-3-hydroxypropane-1-sulfonamide and (S)-3-cyclopentyl-N-(4-(2,6-dimethoxyphenyl)-5-(thiophen-2-yl)-4H-1,2,4-triazol-3-yl)-3-hydroxypropane-1-sulfonamide] | 3 nM
COc1cccc(OC)c1-n1c(NS(=O)(=O)C[C@H](O)c2ccc(Cl)cn2)nnc1-c1ccn(C)n1 (mixture of isomers) [Example 363.0, (R)-2-(5-Chloropyridin-2-yl)-N-(4-(2,6-dimethoxyphenyl)-5-(1-methyl-1H-pyrazol-3-yl)-4H-1,2,4-triazol-3-yl)-2-hydroxyethanesulfonamide and (S)-2-(5-chloropyridin-2-yl)-N-(4-(2,6-dimethoxyphenyl)-5-(1-methyl-1H-pyrazol-3-yl)-4H-1,2,4-triazol-3-yl)-2-hydroxyethanesulfonamide] | 1.5 nM
COc1nc[nH]c(=O)c1-n1c(NS(=O)(=O)[C@@H](C)Cc2ncc(F)cn2)nnc1-c1ccn(C)n1 (racemic) [Example 7.0, (2R)-1-(5-fluoro-2-pyrimidinyl)-N-(4-(4-methoxy-6-oxo-1,6-dihydro-5-pyrimidinyl)-5-(1-methyl-1H-pyrazol-3-yl)-4H-1,2,4-triazol-3-yl)-2-propanesulfonamide and (2S)-1-(5-fluoro-2-pyrimidinyl)-N-(4-(4-methoxy-6-oxo-1,6-dihydro-5-pyrimidinyl)-5-(1-methyl-1H-pyrazol-3-yl)-4H-1,2,4-triazol-3-yl)-2-propanesulfonamide] | 51 nM
CNC(=O)n1ccc(-c2nnc(NS(=O)(=O)[C@@H](C)Cc3ncc(F)cn3)n2-c2c(OC)cccc2OC)n1 (racemic) [Example 72.0, (R)-3-(4-(2,6-dimethoxyphenyl)-5-(2-(5-fluoropyrimidin-2-yl)-1-methylethylsulfonamido)-4H-1,2,4-triazol-3-yl)-N-methyl-1H-pyrazole-1-carboxamide (S)-3-(4-(2,6-dimethoxyphenyl)-5-(2-(5-fluoropyrimidin-2-yl)-1-methylethylsulfonamido)-4H-1,2,4-triazol-3-yl)-N-methyl-1H-pyrazole-1-carboxamide] | 41 nM
COc1cccc(OC)c1-n1c(NS(=O)(=O)C[C@@H](O)c2ccc(F)cc2F)nnc1-c1ccn(C)n1 (racemic) [Example 116.0, (S)-2-(2,4-difluorophenyl)-N-(4-(2,6-dimethoxyphenyl)-5-(1-methyl-1H-pyrazol-3-yl)-4H-1,2,4-triazol-3-yl)-2-hydroxyethanesulfonamide and (R)-2-(2,4-difluorophenyl)-N-(4-(2,6-dimethoxyphenyl)-5-(1-methyl-1H-pyrazol-3-yl)-4H-1,2,4-triazol-3-yl)-2-hydroxyethanesulfonamide] | 2.6 nM
COc1cccc(OC)c1-n1c(NS(=O)(=O)[C@@H](C)Cc2ncc(C)cn2)nnc1-c1nc(C)cs1 (single isomer, unassigned) [Example 8.0, (2S)-N-(4-(2,6-dimethoxyphenyl)-5-(4-methyl-1,3-thiazol-2-yl)-4H-1,2,4-triazol-3-yl)-1-(5-methyl-2-pyrimidinyl)-2-propanesulfonamide or (2R)-N-(4-(2,6-dimethoxyphenyl)-5-(4-methyl-1,3-thiazol-2-yl)-4H-1,2,4-triazol-3-yl)-1-(5-methyl-2-pyrimidinyl)-2-propanesulfonamide] | 0.75 nM
COc1cccc(OC)c1-n1c(NS(=O)(=O)[C@@H](C)Cc2ncc(C)cn2)nnc1-c1nc(C)cs1 (single isomer, unassigned) [Example 9.0, (2S)-N-(4-(2,6-dimethoxyphenyl)-5-(4-methyl-1,3-thiazol-2-yl)-4H-1,2,4-triazol-3-yl)-1-(5-methyl-2-pyrimidinyl)-2-propanesulfonamide or (2R)-N-(4-(2,6-dimethoxyphenyl)-5-(4-methyl-1,3-thiazol-2-yl)-4H-1,2,4-triazol-3-yl)-1-(5-methyl-2-pyrimidinyl)-2-propanesulfonamide] | 11 nM
COc1cccc(OC)c1-n1c(NS(=O)(=O)[C@H](C)Cc2ccc(C#N)cn2)nnc1-c1nc(C)cs1 (single isomer, unassigned) [Example 11.0, (2R)-1-(5-cyano-2-pyridinyl)-N-(4-(2,6-dimethoxyphenyl)-5-(4-methyl-1,3-thiazol-2-yl)-4H-1,2,4-triazol-3-yl)-2-propanesulfonamide or (2S)-1-(5-cyano-2-pyridinyl)-N-(4-(2,6-dimethoxyphenyl)-5-(4-methyl-1,3-thiazol-2-yl)-4H-1,2,4-triazol-3-yl)-2-propanesulfonamide] | 0.8 nM
